According to patent publication US9907857B2, “Peptide having cell membrane penetrating activity” (EWHA UNIVERSITY-INDUSTRY COLLABORATION FOUNDATION, priority 2006, dated 2018):
Where “and” joins values, the source holds several entries; their conditions need not be identical. Identical values can stand only once. Entries after “also recorded” stand apart in the source; their conditions may differ.

Key:
[1] = tested on: HeLa cells; test: Cell penetrating activity of FITC-labelled mutant peptides, mean fluorescence intensity by FACS; type: cell-based; details: for translocation efficiency compared with another peptide variant (comparator named in the value) / mean fluorescence intensity (MFI) relative to WT, MFI of WT at 10 μM set to 1 / mean fluorescence intensity (MFI) relative to WT: 2 hours, FACS; for mean fluorescence intensity (MFI) relative to WT, MFI of WT at 10 μM set to 1: peptide at 10 μM; for penetrating activity compared with TAT: 100 μM; for mean fluorescence intensity (MFI) relative to WT: peptide at 100 μM
Description: N-terminus of each peptide was labeled with fluorescence dye, FITC and C-terminus was protected. Peptide purity (>95%) was determined by HPLC. Synthesis of the peptides of the present invention was requested to PEPTRON, Inc.
HeLa cell line was propagated in DMEM supplemented with 10% FBS and 100 units/mL penicillin-streptomycin. Cells were grown in a 5% CO2 incubator at 37° C.
HeLa cells were cultured in 6-well plate until they were 70˜80% grown up before a day of the experiment. The cells were washed with DMEM of 37° C. twice, and TCTP-derived peptides synthesized in Example 5-1) were treated to the culture medium in a dose dependent manner (0, 1, 10, 100 μM), then the cells was incubated for 2 hours in an CO2 incubator at 37° C.,
After the incubation, the cells were washed in cool PBS two times and treated with 1 mg/ml trypsin for 15 min at 37° C. to digest peptides attached on cell membrane and washed in PBS twice again. Then, the cells were analyzed by FACS at emission 510 nm and excitation 530 nm for a measurement of FITC of intracellular uptake marker (FIGS. 7, 8 and 9). Intracellular translocation efficiency of mutant peptides, TCTP-CPP#1-35(SEQ ID Nos.: 20-54) was compared to wild type(WT), TCTP(1-10)(SEQ ID No.: 1) and control peptide, TAT(48-57).

[2] = tested on: HeLa cells; test: Cell penetrating efficiency of rhodamine-labelled TCTP-derived peptides, microplate fluorescence reader; type: cell-based; details: for intracellular translocation, dependence on concentration: 0-100 μM, 15 minutes or 2 hours; for efficiency versus control peptide TAT at low concentration: 1 μM and 10 μM; for cell penetrating activity / translocation efficiency in comparison with TAT (words): HeLa, rhodamine-labelled peptides, overall
Description: N-terminus of each peptides was labeled with fluorescence dye, rhodamine and C-terminus was protected. Peptide purity (>95%) was determined by HPLC. Synthesis of the peptides was requested to PEPTRON, Inc.
HeLa cell line (ATCC) was propagated in DMEM (GIBCO) supplemented with 10% FBS (GIBCO) and 100 units/mL penicillin-streptomycin. Cells were grown in a 5% CO2 incubator at 37° C.
HeLa cells were cultured in 48-well plate until they were 70˜80% grown up before a day of the experiment. The cells were washed with DMEM of 37° C. twice, and TCTP-derived peptides synthesized in Example 2-1) were treated to the culture medium in a dose dependent manner (0, 1, 5, 10, 50, 100 μM), then the cells was incubated for 15 minutes or 2 hours in an CO2 incubator at 37° C.
After the incubation, the cells were washed in cool PBS three times and immediately measured by a microplate fluorescence reader (BIO-TEK instruments, Inc., Vermont, USA) at emission 530 nm and excitation 590 nm for a measurement of rhodamine of intracellular uptake marker. The sensitivity of reader was set at 100 as a basic mode, but was lowered to 75 if the fluorescent signals were too strong. All experiments were conducted in triplet repeats for reproducibility (FIG. 2 and FIG. 3).

## WIIFRAAASHKK (mutant peptide based on human sequence; (1)..(12) TCTP-CPP#18) [SEQ ID No.: 37]
[1]
  translocation efficiency compared with another peptide variant (comparator named in the value): lower than SEQ ID No.: 34 at the concentration of 100 μM; also recorded: substitution for tryptophan did not increase translocation efficiency
  mean fluorescence intensity (MFI) relative to WT, MFI of WT at 10 μM set to 1: 52.0 times

## LIIFRILISHKK (mutant peptide based on human sequence; (1)..(12) TCTP-CPP#27) [SEQ ID No.: 46]
[1]
  translocation efficiency compared with another peptide variant (comparator named in the value): substitution for leucine caused the decreased penetrating activity
  mean fluorescence intensity (MFI) relative to WT, MFI of WT at 10 μM set to 1: 3.75 times

## MIIYRALISHKK (mutant peptide based on human sequence; (1)..(12) TCTP-CPP#7) [SEQ ID No.: 26]
[1]
  penetrating activity compared with TAT: better penetrating activity than TAT(100 μM)
  mean fluorescence intensity (MFI) relative to WT, MFI of WT at 10 μM set to 1: 6.04 times
  mean fluorescence intensity (MFI) relative to WT: 144.6 times
[1]; concentration not given
  cell penetrating activity compared with WT SEQ ID No.: 1: increased cell penetrating activity

## MIIFRAAASHKK (mutant peptide based on human sequence; (1)..(12) TCTP-CPP#14) [SEQ ID No.: 33]
[1]
  translocation efficiency compared with another peptide variant (comparator named in the value): similarly increased at 100 μM
  mean fluorescence intensity (MFI) relative to WT, MFI of WT at 10 μM set to 1: 3.2 times

## MIIFAIAASHKK (mutant peptide based on human sequence; (1)..(12) TCTP-CPP#26) [SEQ ID No.: 45]
[1]
  mean fluorescence intensity (MFI) relative to WT, MFI of WT at 10 μM set to 1: 11.47 times

## LIIFRILISHHH (mutant peptide based on human sequence; (1)..(12) TCTP-CPP#30) [SEQ ID No.: 49]
[1]; concentration not given
  cell penetrating activity compared with TAT: excellent activity compared with TAT

## LIIFAIAASHKK (mutant peptide based on human sequence; (1)..(12) TCTP-CPP#34) [SEQ ID No.: 53]
[1]
  mean fluorescence intensity (MFI) relative to WT, MFI of WT at 10 μM set to 1: 8.24 times

## MIIYRIAASHKK (mutant peptide based on human sequence; (1)..(12) TCTP-CPP#8) [SEQ ID No.: 27]
[1]
  penetrating activity compared with TAT: better penetrating activity than TAT(100 μM)
  mean fluorescence intensity (MFI) relative to WT, MFI of WT at 10 μM set to 1: 1.73 times
  mean fluorescence intensity (MFI) relative to WT: 342.9 times
[1]; concentration not given
  cell penetrating activity compared with WT SEQ ID No.: 1: increased cell penetrating activity

## FIIFRIAASHKK (mutant peptide based on human sequence; (1)..(12) TCTP-CPP#15) [SEQ ID No.: 34]
[1]
  translocation efficiency compared with another peptide variant (comparator named in the value): increased result of translocation efficiency at the concentration of 10 μM and a decreased result at 100 μM, compared to SEQ ID No.: 31

## MIIYRDLI ((1)..(8) 1-8 amino acid residue of TCTP; listed as Homo sapiens) [SEQ ID No.: 3, Residues of TCTP(1-8)]
[2]
  intracellular translocation, dependence on concentration: translocated not in 1-10 μM but in 50-100 μM
  efficiency versus control peptide TAT at low concentration: lower efficiency than control peptide, TAT
  cell penetrating activity / translocation efficiency in comparison with TAT (words): excellent cell penetrating activity in comparison with conventional TAT
[2]; listed as TCTP (1-8)
  cell penetrating activity / translocation efficiency in comparison with TAT (words): superior ability than well-known PTD, TAT in their translocation efficiency
[2]; listed as TCTP(1-8)
  cell penetrating activity / translocation efficiency in comparison with TAT (words): more excellent penetrating activity than well-known TAT(47-58) peptide

## WIIFRALISHKK (mutant peptide based on human sequence; (1)..(12) TCTP-CPP#19) [SEQ ID No.: 38]
[1]
  translocation efficiency compared with another peptide variant (comparator named in the value): lower than SEQ ID No.: 34 at the concentration of 100 μM; also recorded: substitution for tryptophan did not increase translocation efficiency
  mean fluorescence intensity (MFI) relative to WT, MFI of WT at 10 μM set to 1: 55.6 times

## MIIFKIAASHKK (mutant peptide based on human sequence; (1)..(12) TCTP-CPP#24) [SEQ ID No.: 43]
[1]
  mean fluorescence intensity (MFI) relative to WT, MFI of WT at 10 μM set to 1: 12.1 times

## MIIYRAEISH (mutant peptide based on human sequence; (1)..(10) TCTP-CPP#10) [SEQ ID No.: 29]
[1]; concentration not given
  cell penetrating activity compared with WT SEQ ID No.: 1: decreased to same degree with alanine substituent

## LIIFRIAASHKK (mutant peptide based on human sequence; (1)..(12) TCTP-CPP#16) [SEQ ID No.: 35]
[1]
  translocation efficiency compared with another peptide variant (comparator named in the value): increased result of translocation efficiency at the concentration of 10 μM and a decreased result at 100 μM, compared to SEQ ID No.: 31
  mean fluorescence intensity (MFI) relative to WT, MFI of WT at 10 μM set to 1: 29.53 times

## WIIFRIAASHKK (mutant peptide based on human sequence; (1)..(12) TCTP-CPP#17) [SEQ ID No.: 36]
[1]
  translocation efficiency compared with another peptide variant (comparator named in the value): stronger than SEQ ID No.: 40(WT-IX:Y) and SEQ ID No.: 42(WT-IX:T) only at 10 μM
  mean fluorescence intensity (MFI) relative to WT, MFI of WT at 10 μM set to 1: 18.4 times

## MIIFRIAASHKK (mutant peptide based on human sequence; (1)..(12) TCTP-CPP#12) [SEQ ID No.: 31]
[1]
  translocation efficiency compared with another peptide variant (comparator named in the value): similarly increased at 100 μM
  mean fluorescence intensity (MFI) relative to WT, MFI of WT at 10 μM set to 1: 29 times and 26.77 times

## MIIFRDLISH (mutant peptide based on human sequence; (1)..(10) TCTP-CPP#3) [SEQ ID No.: 22]
[1]
  penetrating activity compared with TAT: better penetrating activity than TAT(100 μM)
  mean fluorescence intensity (MFI) relative to WT, MFI of WT at 10 μM set to 1: 19.63 times
  mean fluorescence intensity (MFI) relative to WT: 216.75 times

## MIIYRDLISH ((1)..(10) 1-10 amino acid residue of TCTP; listed as Homo sapiens) [SEQ ID No.: 1, Residues of TCTP(1-10)]
[2]
  intracellular translocation, dependence on concentration: translocated not in 1-10 μM but in 50-100 μM
  efficiency versus control peptide TAT at low concentration: lower efficiency than control peptide, TAT
  cell penetrating activity / translocation efficiency in comparison with TAT (words): excellent cell penetrating activity in comparison with conventional TAT
[2]; 50 μM (FIGS. 2 & 3)
  cell penetrating activity, SEQ ID No.: 1 versus SEQ ID No.: 2: more effective than SEQ ID No.: 2
[2]; 2 hour treatment (FIG. 3)
  concentration at which translocation was saturated: 50 µM
[2]; listed as TCTP (1-10)
  cell penetrating activity / translocation efficiency in comparison with TAT (words): superior ability than well-known PTD, TAT in their translocation efficiency
[2]; treated for 15 minutes in 50 μM
  cell penetrating activity compared to that of TAT: over 3 times
[2]; treated for 15 minutes in 100 μM
  cell penetrating activity compared to that of TAT: 6 times
[2]; treatment for 2 hours, 50 μM
  cell penetrating activity compared to that of TAT: about 29 times
[2]; treatment for 2 hours, 100 μM
  cell penetrating activity compared to that of TAT: ~30 times

## MIIFRIAAYHKK (mutant peptide based on human sequence; (1)..(12) TCTP-CPP#20) [SEQ ID No.: 39]
[1]
  translocation efficiency compared with another peptide variant (comparator named in the value): lower than SEQ ID No.: 34 at the concentration of 100 μM
  mean fluorescence intensity (MFI) relative to WT, MFI of WT at 10 μM set to 1: 25.0 times

## MIIYRDKKSH (mutant peptide based on human sequence; (1)..(10) TCTP-CPP#2) [SEQ ID No.: 21]
[1]; concentration not given
  cell penetrating activity compared with WT SEQ ID No.: 1: decreased twice

## MIIFRILISHKK (mutant peptide based on human sequence; (1)..(12) TCTP-CPP#28) [SEQ ID No.: 47]
[1]
  mean fluorescence intensity (MFI) relative to WT, MFI of WT at 10 μM set to 1: 7.04 times

## CIISRDLISH (mutant peptide based on human sequence; (1)..(10) TCTP-CPP#6) [SEQ ID No.: 25]
[1]
  mean fluorescence intensity (MFI) relative to WT, MFI of WT at 10 μM set to 1: 0.91 times
  mean fluorescence intensity (MFI) relative to WT: 1.81 times

## WIIFKIAASHKK (mutant peptide based on human sequence; (1)..(12) TCTP-CPP#25) [SEQ ID No.: 44]
[1]
  mean fluorescence intensity (MFI) relative to WT, MFI of WT at 10 μM set to 1: 15.04 times
